# Source: patent US9241961B2, “Medicinal product for treating gastrointestinal ulcers” (BIOCEDEX, priority 2009, dated 2016)
# Key:
# [1] = tested on: gastric ibuprofen-induced ulcer; assay: model of gastric ibuprofen-induced ulcer in the rat; type: in vivo; details: ibuprofen alone 100 mg/kg/d oral for 6 days, male Wistar rat
# Experimental: The inventors determined the anti-ulcer effect of Saccharomyces boulardii in the model of gastric ibuprofen-induced ulcer in the rat according to the protocol of Abraham et al. (2005) Dig Dis Sci 50:1 632-1 640. Male Wistar rats obtained from Janvier weighing between 200 and 220 grams are used after acclimatization for at least 7 days in the animal house (temp.=22 ±2° C.; humidity: 50±20%; food SAFE “A04”; nyctohemeral cycle: 12 hours of light and 12 hours of darkness). On D1, the rat receives the test product or the solvent by the oral route. Then, 1 hour later, the rat receives ibuprofen at 100 mg/kg by the oral route, or the solvent for the control group. The rats receive these treatments for 6 consecutive days. The animals go without food for 14-16 hours before the last administration of ibuprofen, but have access to drink. They are placed individually in a metal cage, the floor of which is a grating, to prevent coprophagia. On D6 the rat is sacrificed. […] Macroscopic evaluation of the gastric lesions is carried out as follows: • the stomach is spread out on a cork support with pins; • the number of ulcers on each stomach is counted; • the ulcerated area (mm^2) of haemorrhagic lesions is measured with a grid of squares (×10) and a stereo-microscope (Leica Wild M8) by measuring the length (mm) and width (mm) of each ulceration. […]
# [2] = development of body weight of the rats during 6-day oral treatment; type: in vivo; details: Sb 0.3-1.0-3.0 g/kg/d and/or ibuprofen 100 mg/kg/d, 6 days, rat
# Experimental: Male Wistar rats obtained from Janvier weighing between 200 and 220 grams are used after acclimatization for at least 7 days in the animal house (temp.=22 ±2° C.; humidity: 50±20%; food SAFE “A04”; nyctohemeral cycle: 12 hours of light and 12 hours of darkness).
# On D1, the rat receives the test product or the solvent by the oral route. Then, 1 hour later, the rat receives ibuprofen at 100 mg/kg by the oral route, or the solvent for the control group. The rats receive these treatments for 6 consecutive days.
structure (smiles),measurement,setting,value
CC(C)Cc1ccc(C(C)C(=O)O)cc1 (stereo not drawn) [ibuprofen],number of ulcers,"[1]; gastric mucosa, recorded on day 6",6.60±1.06 ulcers
same,total area of ulceration,[1]; measured on day 6,9.40±1.72 mm^2
same,development of body weight relative to the untreated group,[2],do not alter the development of body weight
